Earlier results as cited in patent US6344215B1, “Methylphenidate modified release formulations” (Eurand America, Inc., priority 2000, dated 2002).
Where a name gives a salt, the structure may show the parent alone.

Details: gastrointestinal tract

**Q.** For COC(=O)C(c1ccccc1)C1CCCCN1 (stereo not shown) [Methylphenidate Hydrochloride], which absorption is on record?
**A.** Its absorption is “well absorbed throughout the gastrointestinal tract”.
